According to patent EP4635565A1, “PRENYLATED TETRAHYDROQUINOLINES AND QUINOLINES WITH PPAR AGONIST ACTIVITY” (Fundación para la Investigación del Hospital Clínico de la …, priority 2024, dated 2025):

Tests used:
[1] = test system: hPPARα, hPPARβ/δ, and hPPARγ; assay: PPAR transactivation assays, agonist profile over the three isoforms; settings: always with partial activity on the PPARγ isoform
[2] = molecular target: T1, hPPARγ (Homo sapiens, UniProt P37231); assay: PPAR transactivation assay, human chimeric PPAR/Gal4 reporter luciferase system in Cos-7 cells (PPARγ); assay type: cell-based; settings: for Emax at 10 µM: COS-7, read-out: Efficacy (%) at 10 µmol/L PPARγ; for EC50: human PPARγ/Gal4, Cos-7 cells, concentration range 0.001-10 µmol/L, NA: not active
T1 sequence (P37231 238-505): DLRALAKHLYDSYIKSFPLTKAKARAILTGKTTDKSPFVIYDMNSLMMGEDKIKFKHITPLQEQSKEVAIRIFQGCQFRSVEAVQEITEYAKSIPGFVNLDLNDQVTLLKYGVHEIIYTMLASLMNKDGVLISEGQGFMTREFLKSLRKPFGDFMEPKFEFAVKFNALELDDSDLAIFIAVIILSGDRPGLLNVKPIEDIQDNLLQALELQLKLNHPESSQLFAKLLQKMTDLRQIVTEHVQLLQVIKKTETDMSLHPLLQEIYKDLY
Protocol: (§1) Transfections were stopped after 16 h by adding DMEM/10% FCS. Cells were detached with trypsin, re-seeded in 96-well plates for 6 h in DMEM/10% FCS, and incubated for 24 h in DMEM/0.2% FCS with increasing concentrations of the test compounds or vehicle (DMSO, 0.1% final concentration). At the end of the experiment, cells were washed once with ice-cold PBS, lysed, and luciferase and β-galactosidase activities were measured. Luciferase activity was normalised to that of the internal control, β-galactosidase. All transfection experiments were performed at least five times.
(§2) EC50 values against human PPARα/Gal4, PPARβ/δ/Gal4 and PPARγ/Gal4 receptors.

[3] = molecular target: T2, hPPARβ/δ (Homo sapiens, UniProt Q03181); assay: PPAR transactivation assay, human chimeric PPAR/Gal4 reporter luciferase system in Cos-7 cells (PPARβ/δ); assay type: cell-based; settings: for Emax at 10 µM: COS-7, read-out: Efficacy (%) at 10 µmol/L PPARβ/δ; for EC50: human PPARβ/δ/Gal4, Cos-7 cells, concentration range 0.001-10 µmol/L, NA: not active
T2 sequence (Q03181 171-441): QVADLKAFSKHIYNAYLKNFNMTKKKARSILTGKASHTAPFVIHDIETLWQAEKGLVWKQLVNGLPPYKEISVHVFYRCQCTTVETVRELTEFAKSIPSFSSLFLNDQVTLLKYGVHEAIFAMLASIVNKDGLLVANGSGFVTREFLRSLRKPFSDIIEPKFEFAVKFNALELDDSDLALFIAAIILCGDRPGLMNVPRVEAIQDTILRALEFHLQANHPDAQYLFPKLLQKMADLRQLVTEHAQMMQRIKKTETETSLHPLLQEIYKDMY
Protocol: as §1, §2

[4] = molecular target: T3, hPPARα (Homo sapiens, UniProt Q07869); assay: PPAR transactivation assay, human chimeric PPAR/Gal4 reporter luciferase system in Cos-7 cells (PPARα); assay type: cell-based; settings: for Emax at 10 µM: COS-7, read-out: Efficacy (%) at 10 µmol/L PPARα; for Emax: COS-7, read-out: efficiencies times higher than the prior art compound WY-14,643
T3 sequence (Q07869 167-468): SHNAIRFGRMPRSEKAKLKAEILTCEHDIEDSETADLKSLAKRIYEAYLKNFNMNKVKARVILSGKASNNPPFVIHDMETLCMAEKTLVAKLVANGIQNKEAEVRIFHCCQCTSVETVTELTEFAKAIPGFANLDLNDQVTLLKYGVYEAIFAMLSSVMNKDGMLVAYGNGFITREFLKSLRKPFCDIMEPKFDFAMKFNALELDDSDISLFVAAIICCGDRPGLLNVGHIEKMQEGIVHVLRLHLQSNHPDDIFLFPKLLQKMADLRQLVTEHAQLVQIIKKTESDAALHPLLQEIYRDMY
Protocol: as §1, §2

[5] = test system: THP-1 cells; assay: Cytotoxicity, Annexin V-FITC/PI dual staining by flow cytometry; assay type: cell-based, human; settings: 30 and 100 µM, 24 h
Protocol: The cytotoxicity of tetrahydroquinoline and quinoline esters 5a, 5b, 8a and 8b was evaluated at 30 and 100 µM by flow cytometry to assess cell survival using an Annexin V-FITC/PI dual staining assay. THP-1 cells (3 × 10^4 cells per well) were seeded in 24-well plates and allowed to grow overnight. The medium was then replaced and incubations with the different compounds or DMSO were performed during 24 h. Then, all cells were processed with the Annexin V-assay kit (ANXCFK7, Immunostep, Salamanca, Spain) according to the manufacturer's instruction. A Becton Dickinson LSR Fortessa cytometer (BD Biosciences, Franklin Lakes, NJ, USA) was used for samples, and cell analysis were performed using FACSDiva X20 software.
The potential cytotoxic effects of the compounds of the invention 5a, 5b, 8a, and 8b on the human macrophage cell line THP-1 were evaluated by flow cytometry to assess cell survival using an Annexin V-FITC/PI dual staining assay. The THP-1 cells were treated with concentrations of 30 and 100 µM for 24 h.

[6] = test system: NF-κB-IL8P-Luc+; assay: NF-κB-IL8P transactivation assay (TNFα-stimulated L929sA cells); assay type: cell-based, mouse; settings: 10 µM, 1 h before TNF (2000 IU/ml), total induction time 6 h; compared to GW7647
Protocol: L929sA mouse fibroblasts were stably transfected using the calcium phosphate precipitation protocol, as described previously with p1481.IL8P-Luc+ plasmid construct. The indicated induction was performed at least in triplicates. All conditions were solvent-controlled. Subsequently, the cells were washed with PBS and lysed using TROPIX lysis buffer. Cellular luciferase levels were normalised to those of β-galactosidase (TROPIX, Bedford, MA, USA).
(§3) PPARs play crucial roles in controlling inflammatory responses. NF-κB is a transcription factor that plays a pivotal role in the expression of multiple genes involved in the immune and inflammatory responses. To study the potential anti-inflammatory effects of the tetrahydroquinolines and quinolines of the invention, the NF-κB-dependent physiological human IL-8 promoter construct, p1481.IL8P-Luc+, which is stably integrated into L929sA cells, was tested. After transfection, cells were treated at 10 µM with 5a, 5b, 8a, or 8b prior to TNFa stimulation. […] Given the significant decrease in NF-κB-IL8P-Luc+ reporter gene activity observed after treatment with the 2- or 3-prenylated tetrahydroquinolines 5a and 5b and the 3-prenylated quinoline 8b, their potential anti-inflammatory effects at the transcriptional level for other inflammatory mediators was evaluated. To achieve this, the L929sA WT cells were treated with 5a, 5b and 8b at 10 µM for 1 h, followed by TNFa stimulation for a total induction time of 6 h. The expression of inflammatory genes was evaluated by RT-qPCR.

[7] = test system: TNFα-induced proinflammatory genes; assay: TNFα-induced pro-inflammatory gene expression by RT-qPCR in L929sA WT cells; assay type: cell-based, mouse; settings: 10 µM for 1 h, then TNFa, total induction time 6 h
Protocol: (§4) RNA was isolated using the RNeasy Purification Kit (Qiagen) according to the manufacturer's instructions. cDNA was synthesised using a PrimeScript kit (Takara). RT-qPCR was performed using Light Cycler 480 SYBR Green I Master Mix (Roche).
as §3

[8] = test system: PDK4-(PPRE)3-Luc+; assay: Pdk4 transactivation assay (PDK4-(PPRE)3-Luc+ reporter in L929sA cells); assay type: cell-based, mouse; settings: 10 µM, 6 h, L929sA cells; compared to GW7647 at 1 µM
Protocol: Transfection of L929sA cells stably expressing reporter genes was performed using the calcium phosphate precipitation protocol according to standard procedures with a 10-fold excess of the plasmid of interest in a pGL3-basic vector containing Luc+, a modified firefly luciferase gene (Promega Biotec, Madison, Wis,) USA. USA). The Pdk4 reporter was created using an enhancer site linked to the Pdk4 promoter containing three PPRE extracted from mouse liver genomic DNA. The aforementioned plasmid construct was then introduced into a pMet7 backbone, which had previously been cloned with a luciferase gene site, using Xhol and Sacl cut sites. The resulting construct was subjected to geneticin (neomycin) antibiotic selection to isolate individual clones. A stable cell line, designated Pdk4-Luc+, was subsequently established in L929sA cells, which also contained a constitutively expressed galactosidase reporter and a neomycin selection cassette.
(§5) Pyruvate Dehydrogenase Kinase 4 gene (Pdk4), a well-known target gene of PPARs, encodes a protein that regulates the phosphorylation and inactivation of the pyruvate dehydrogenase complex in response to physiological conditions. This response switches the energy source from glucose to fatty acids to maintain blood glucose levels to, thereby, increase lipid metabolism. Because it is a well-known target gene of PPARs, the effect of the 2- and 3-prenylated esters of tetrahydroquinolines and quinolines on a Pdk4 region reported to bind PPARα, was evaluated. The L929sA cells that were stably transfected with a PDK4-(PPRE)3-Luc+ reporter gene construct were used.

[9] = test system: Pdk4; assay: Pdk4 mRNA expression by RT-qPCR in L929sA WT cells; assay type: cell-based, mouse; settings: 10 µM, 6 h
Protocol: as §4, §5

Structure (SMILES)	PPAR agonist activity profile [1]	Emax at 10 µM [2] [%]	EC50 [2] [nM]	Emax at 10 µM [3] [%]	EC50 [3] [nM]	EC50 [4] [nM]	Emax at 10 µM [4] [%]	Emax [4] [%]	cytotoxic effects (cell survival) [5]	transactivation of the TNFα-dependent NF-κB-driven reporter [6]	transcription of TNFα-induced proinflammatory genes [7]	transactivation of the PDK4-Luc+ indicator [8]	expression of Pdk4 mRNA [9]
C/C(=C\CCC1CCc2cc(OCc3ccccc3)ccc2N1C)CCC(=O)O (stereo not shown) [Compound 6a, (E)-7-(6-(benzyloxy)-1-methyl-1,2,3,4-tetrahydroquinolin-2-yl)-4-methylhept-4-enoic acid]	pan-PPAR agonist activity	36	3900	73	4600	2900	144	–	–	–	–	–	–
C/C(=C\CC1Cc2cc(OCc3ccccc3)ccc2N(C)C1C)CCC(=O)O (stereo not shown) [Compound 6b, (E)-6-(6-(benzyloxy)-1,2-dimethyl-1,2,3,4-tetrahydroquinolin-3-yl)-4-methylhex-4-enoic acid]	selective PPARα	24	1700	35	5800	1300	461	300 to 400	–	–	–	–	–
C/C(=C\Cc1cc2cc(OCc3ccccc3)ccc2nc1C)CCC(=O)O [Compound 9b, (E)-6-(6-(benzyloxy)-2-methylquinolin-3-yl)-4-methylhex-4-enoic acid]	dual PPARα/γ agonist activity	25	900	2	5100	1800	218	–	–	–	–	–	–
CCOC(=O)CC/C(C)=C/Cc1cc2cc(OCc3ccccc3)ccc2nc1C [Compound 8b, Ethyl (E)-6-(6-(benzyloxy)-2-methylquinolin-3-yl)-4-methylhex-4-enoate]	dual PPARα/γ agonist activity	37	1000	2	7900	2200	221	–	No cytotoxic effects were observed	can repress the transactivation of the TNFα-dependent NF-κB-driven reporter	downregulated the transcription of TNFα-induced proinflammatory genes such as Cc/5 and II-6	–	–
C/C(=C\CCc1ccc2cc(OCc3ccccc3)ccc2n1)CCC(=O)O [Compound 9a, (E)-7-(6-(benzyloxy)quinolin-2-yl)-4-methylhept-4-enoic acid]	dual PPARα/γ agonist activity	39	3300	14	1100	3600	104	–	–	–	–	–	–
CCOC(=O)CC/C(C)=C/CCc1ccc2cc(OCc3ccccc3)ccc2n1 [Compound 8a, Ethyl (E)-7-(6-(benzyloxy)quinolin-2-yl)-4-methylhept-4-enoate]	–	–	–	32	2000	2800	210	–	No cytotoxic effects were observed	–	–	increased the transactivation of the PDK4-Luc+ indicator	–
CCOC(=O)CC/C(C)=C/CC1Cc2cc(OCc3ccccc3)ccc2N(C)C1C (stereo not shown) [Compound 5b, Ethyl (E)-6-(6-(benzyloxy)-1,2-dimethyl-1,2,3,4-tetrahydroquinolin-3-yl)-4-methylhex-4-enoate]	selective PPARα	15	16900	7	5800	1900	328	300 to 400	No cytotoxic effects were observed	can repress the transactivation of the TNFα-dependent NF-κB-driven reporter	downregulated the transcription of TNFα-induced proinflammatory genes such as Cc/5 and II-6	increased the transactivation of the PDK4-Luc+ indicator	increased expression levels of Pdk4
